Measured values: PMC8154229 (ACS Omega, 2021)

Target: human H1R (Homo sapiens, UniProt P35367)
Type: binding
Conditions: between 13 and 17

Chain of human H1R (P35367 whole entry): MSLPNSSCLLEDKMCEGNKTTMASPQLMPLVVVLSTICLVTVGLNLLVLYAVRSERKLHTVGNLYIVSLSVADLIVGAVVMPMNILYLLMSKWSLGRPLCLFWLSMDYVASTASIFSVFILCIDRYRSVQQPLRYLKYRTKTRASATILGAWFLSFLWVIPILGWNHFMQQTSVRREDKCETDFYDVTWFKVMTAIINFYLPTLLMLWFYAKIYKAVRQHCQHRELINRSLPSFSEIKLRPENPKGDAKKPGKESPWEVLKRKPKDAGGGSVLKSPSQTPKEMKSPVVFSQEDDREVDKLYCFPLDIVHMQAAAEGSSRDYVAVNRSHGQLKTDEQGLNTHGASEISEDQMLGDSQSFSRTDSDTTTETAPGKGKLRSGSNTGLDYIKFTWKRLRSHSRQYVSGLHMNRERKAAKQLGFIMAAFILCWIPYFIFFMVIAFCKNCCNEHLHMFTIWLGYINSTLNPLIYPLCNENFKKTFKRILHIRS

CN1CCC(=C2c3ccccc3CCc3ccccc32)CC1 [Compound 13, 4-(10,11-Dihydro-5H-dibenzo[a,d][7]annulen-5-ylidene)-1-methylpiperidine]
fold difference in affinity: 100 fold
